Earlier results in patent US20240293547A1, “POLYMERIC PERFLUOROCARBON NANOEMULSIONS FOR ULTRASONIC DRUG UNCAGING” (The Board of Trustees of the Leland Stanford Junior …, priority 2017, published 2024).

Settings: for LogP: of the loaded drug

In the case of Cc1cccc([C@H](C)c2cnc[nH]2)c1C [Dexmedetomidine], the LogP is listed as 2.8.

In the case of COC(=O)C1=C(C)NC(C)=C(C(=O)OCCN(C)Cc2ccccc2)C1c1cccc([N+](=O)[O-])c1 (stereo not drawn) [Nicardipine], the “log P” value is listed as 3.8 and the LogP is listed as 3.82.
